Data as given in US20250144067A1, “PERSONALIZED STARVATION THERAPY FOR CANCER” (Faeth Therapeutics, Inc., priority 2021, published 2025).
Counter-ions that a name gives are not always drawn. Like-named read-outs stand apart in the source and are kept apart here.

Assays:
[1] = tested on: NCI-H292 lung cancer cells; assay: FDA drug screening, complete media vs cholesterol-free media without statin (TABLE 1); assay type: cell-based, human
[2] = tested on: NCI-H292 lung cancer cells; assay: FDA drug screening, complete media vs cholesterol-free media with simvastatin (TABLE 2); assay type: cell-based, human
[3] = Complete minus Cholesterol-free, greater than 0 enhanced anti-cancer activity, about 0 neutral, below 0 antagonists
[4] = NCI-H292 cells in cholesterol-free media without statin
[5] = NCI-H292 cells in complete media
[6] = NCI-H292 cells, drug in cholesterol-free media with simvastatin 0.04 μM
[7] = NCI-H292 cells, drug in complete media
[8] = complete media vs cholesterol-free media + simvastatin (0.04 μM), >0 enhanced anti-cancer activity, about 0 neutral, <0 antagonist
[9] = NCI-H292 cells, cholesterol-free media without statin, FDA drug library screen
[10] = NCI-H292 cells, complete media, FDA drug library screen
[11] = complete vs cholesterol-free media, >0 enhanced anti-cancer activity, about 0 neutral, <0 antagonist
[12] = Complete minus Cholesterol-free, >0 enhanced anti-cancer activity, about 0 neutral, <0 antagonist
[13] = NCI-H292 cells, cholesterol-free media without statin
[14] = NCI-H292 cells, FDA drug library screen, cholesterol-free media with simvastatin 0.04 μM
[15] = NCI-H292 cells, FDA drug library screen, complete media
[16] = complete media minus cholesterol-free media + simvastatin, >0 enhanced anti-cancer activity, about 0 neutral, <0 antagonist
[17] = Complete minus Cholesterol-free, […]
[18] = NCI-H292 cells, cholesterol-free media with simvastatin 0.04 μM, FDA drug library screen (TABLE 2)
[19] = NCI-H292 cells, complete media, FDA drug library screen (TABLE 2)
[20] = complete media minus cholesterol-free media + simvastatin (0.04 μM), […]
[21] = Complete minus Cholesterol-free, greater than 0 enhanced anti-cancer activity, about 0 neutral, below 0 antagonist
[22] = NCI-H292 cells, FDA drug library screen, cholesterol-free media without statin
[23] = complete vs cholesterol-free media, greater than 0 enhanced anti-cancer activity, about 0 neutral, below 0 antagonists
[24] = NCI-H292 cells, FDA library drug in cholesterol-free media with simvastatin 0.04 μM
[25] = NCI-H292 cells, FDA library drug in complete media
[26] = complete media vs cholesterol-free media + simvastatin (0.04 μM), […]
[27] = complete media minus cholesterol-free media + simvastatin, […]
[28] = complete media minus cholesterol-free media + simvastatin (0.04 μM), >0 enhanced anti-cancer activity, about 0 neutral, <0 antagonist

FC(F)(F)c1ccc(CNc2ccc(Cc3c[nH]c4ncc(Cl)cc34)cn2)cn1 [Pexidartinib]
Difference [1, 3]: −0.77 | Cholesterol-free [1, 4]: 1.609 | Complete [1, 5]: 0.8353 | Cholesterol-free media + simvastatin (0.04 μM) [2, 6]: 1.767 | Complete Media [2, 7]: 1.579 | Difference [2, 8]: −0.19

CC(=O)OCC[N+](C)(C)C.[Cl-] [Acetylcholine (chloride)]
Cholesterol-free [1, 9]: 1.32 | Complete [1, 10]: 1.724 | Difference [1, 11]: 0.40 | Cholesterol-free media + simvastatin (0.04 μM) [2, 6]: 0.9864 | Complete Media [2, 7]: 0.8029 | Difference [2, 8]: −0.18

C=C1CC[C@H](O)C/C1=C/C=C1\CCC[C@]2(C)[C@@H]([C@H](C)CCCC(C)(C)O)CC[C@@H]12 [Calcifediol]
Difference [1, 3]: −0.53 | Cholesterol-free [1, 4]: 1.425 | Complete [1, 5]: 0.8976 | Cholesterol-free media + simvastatin (0.04 μM) [2, 6]: 1.216 | Complete Media [2, 7]: 1.052 | Difference [2, 8]: −0.16

C[C@]12CC[C@@H]3c4ccc(O)cc4C[C@@H](CCCCCCCCC[S+]([O-])CCCC(F)(F)C(F)(F)F)[C@H]3[C@@H]1CC[C@@H]2O (stereo partly drawn) [Fulvestrant]
Difference [1, 12]: −0.29 | Cholesterol-free [1, 13]: 1.364 | Complete ([1]; NCI-H292 cells, complete media): 1.074 | Cholesterol-free media + simvastatin (0.04 μM) [2, 14]: 1.051 | Complete Media [2, 15]: 0.9579 | Difference [2, 8]: −0.09

C[C@H](Cn1cnc2c(N)ncnc21)OCP(=O)(O)O [Tenofovir]
Difference [1, 3]: −0.62 | Cholesterol-free [1, 4]: 1.637 | Complete [1, 5]: 1.013 | Cholesterol-free media + simvastatin (0.04 μM) [2, 14]: 0.8374 | Complete Media [2, 15]: 1.066 | Difference [2, 16]: 0.23

C[C@@H]1O[C@@H](O[C@H]2C[C@@H](O)[C@]3(CO)[C@H]4[C@H](O)C[C@]5(C)[C@@H](C6=CC(=O)OC6)CC[C@]5(O)[C@@H]4CC[C@]3(O)C2)[C@H](O)[C@H](O)[C@H]1O.O.O.O.O.O.O.O.O [Ouabain (Octahydrate)]
Difference [1, 17]: 0.01 | Cholesterol-free [1, 9]: −0.009774 | Complete [1, 10]: −0.0006686 | Cholesterol-free media + simvastatin (0.04 μM) [2, 18]: 0.0005446 | Complete Media [2, 19]: −0.01106 | Difference [2, 20]: −0.01

CCOc1ccc(NC(C)=O)cc1 [Phenacetin]
Difference [1, 21]: −0.09 | Cholesterol-free [1, 22]: 0.9552 | Complete [1, 15]: 0.8688 | Cholesterol-free media + simvastatin (0.04 μM) [2, 14]: 1.132 | Complete Media [2, 15]: 1.048 | Difference [2, 8]: −0.08

Nc1ccc(S(=O)(=O)NC(=O)c2ccccc2)cc1 [Sulfabenzamide]
Cholesterol-free [1, 13]: 1.412 | Complete ([1]; NCI-H292 cells, complete media): 1.023 | Difference [1, 23]: −0.39 | Cholesterol-free media + simvastatin (0.04 μM) [2, 6]: 1.231 | Complete Media [2, 7]: 1.041 | Difference [2, 8]: −0.19

O=C(O)CCCc1ccccc1 [4-Phenylbutyric acid]
Difference [1, 21]: −0.13 | Cholesterol-free [1, 22]: 1.208 | Complete [1, 15]: 1.079 | Cholesterol-free media + simvastatin (0.04 μM) [2, 6]: 1.251 | Complete Media [2, 7]: 1.056 | Difference [2, 8]: −0.19

c1cnc2cc3c(cc2n1)[C@@H]1CNC[C@H]3C1 [Varenicline (Hydrochloride)]
Difference [1, 12]: −0.20 | Cholesterol-free [1, 13]: 1.095 | Complete ([1]; NCI-H292 cells, complete media): 0.8911 | Cholesterol-free media + simvastatin (0.04 μM) [2, 6]: 1.193 | Complete Media [2, 7]: 0.9876 | Difference [2, 8]: −0.21

C[N+]1(C)[C@@H]2CC[C@H]1C[C@@H](OC(=O)C(O)c1ccccc1)C2.[Br-] (stereo partly drawn) [Homatropine (methylbromide)]
Difference [1, 17]: −0.22 | Cholesterol-free [1, 13]: 1.269 | Complete ([1]; NCI-H292 cells, complete media): 1.05 | Cholesterol-free media + simvastatin (0.04 μM) [2, 24]: 1.302 | Complete Media [2, 25]: 0.9164 | Difference [2, 26]: −0.39

CN(C)C(=O)c1ccc(S(=O)(=O)c2ccc(NC(=O)[C@@](C)(O)C(F)(F)F)c(Cl)c2)cc1 [AZD7545]
Difference [1, 17]: −0.01 | Cholesterol-free [1, 9]: 0.721 | Complete [1, 10]: 0.7125 | Cholesterol-free media + simvastatin (0.04 μM) [2, 14]: 0.8136 | Complete Media [2, 15]: 1.088 | Difference [2, 27]: 0.27

CO[C@H]1C(=O)[C@]2(C)[C@@H](OC)C[C@H]3OC[C@@]3(OC(C)=O)[C@H]2[C@H](OC(=O)c2ccccc2)[C@]2(O)C[C@H](OC(=O)[C@H](O)[C@@H](NC(=O)OC(C)(C)C)c3ccccc3)C(C)=C1C2(C)C [Cabazitaxel]
Difference [1, 12]: −0.01 | Cholesterol-free [1, 9]: 0.2044 | Complete [1, 10]: 0.198 | Cholesterol-free media + simvastatin (0.04 μM) [2, 18]: 0.364 | Complete Media [2, 19]: 0.3065 | Difference [2, 28]: −0.06

c1ccc(CN(CC2=NCCN2)c2ccccc2)cc1 [Antazoline (hydrochloride)]
Difference [1, 12]: −0.24 | Cholesterol-free [1, 13]: 1.006 | Complete ([1]; NCI-H292 cells, complete media): 0.7704 | Cholesterol-free media + simvastatin (0.04 μM) [2, 6]: 1.401 | Complete Media [2, 7]: 1.21 | Difference [2, 8]: −0.19

CC(C)[C@]12O[C@H]1[C@@H]1O[C@@]13[C@@]1(C)CCC4=C(COC4=O)[C@@H]1C[C@@H]1O[C@@]13C2=O [Triptonide]
Difference [1, 17]: −0.01 | Cholesterol-free [1, 9]: 0.01808 | Complete [1, 10]: 0.005807 | Cholesterol-free media + simvastatin (0.04 μM) [2, 18]: 0.02446 | Complete Media [2, 19]: 0.02522 | Difference [2, 20]: 0.00

Paromomycin (sulfate)
Cholesterol-free [1, 9]: 0.541 | Complete [1, 10]: 1.15 | Difference ([1]; complete vs cholesterol-free media, […]): 0.61 | Cholesterol-free media + simvastatin (0.04 μM) [2, 6]: 1.383 | Complete Media [2, 7]: 1.216 | Difference [2, 26]: −0.17

C[C@H]1C[C@H]2[C@@H]3CCC4=CC(=O)C=C[C@]4(C)[C@@]3(Cl)[C@@H](O)C[C@]2(C)[C@@]1(O)C(=O)CO [Beclometasone]
Difference [1, 17]: −0.04 | Cholesterol-free [1, 9]: 1.244 | Complete [1, 10]: 1.205 | Cholesterol-free media + simvastatin (0.04 μM) ([2]; NCI-H292 cells, cholesterol-free media with simvastatin 0.04 μM, […]): 0.7122 | Complete Media ([2]; NCI-H292 cells, complete media, […]): 0.7656 | Difference [2, 27]: 0.05

COc1cc2c(cc1OC)C1CC(=O)C(CC(C)C)CN1CC2 (stereo not drawn) [Tetrabenazine]
Cholesterol-free [1, 13]: 1.615 | Complete ([1]; NCI-H292 cells, complete media): 1.162 | Difference [1, 23]: −0.45 | Cholesterol-free media + simvastatin (0.04 μM) [2, 6]: 1.249 | Complete Media [2, 7]: 1.01 | Difference [2, 8]: −0.24

[O-][n+]1ccccc1[S-].[O-][n+]1ccccc1[S-].[Zn+2] [Zinc Pyrithione]
Cholesterol-free [1]: 0.0139 | Complete [1]: 0.007475 | Difference [1]: −0.01 | Cholesterol-free media + simvastatin (0.04 μM) [2]: 0.004251 | Complete Media [2]: −0.04835 | Difference [2]: −0.05

(−)-Huperzine A
Difference [1, 17]: 0.00 | Cholesterol-free [1, 9]: 1.621 | Complete [1, 10]: 1.617 | Cholesterol-free media + simvastatin (0.04 μM) [2, 18]: 1.198 | Complete Media [2, 19]: 1.208 | Difference [2, 20]: 0.01

CN(Cc1cnc2nc(N)nc(N)c2n1)c1ccc(C(=O)N[C@@H](CCC(=O)[O-])C(=O)[O-])cc1.[Na+].[Na+] [Methotrexate (disodium)]
Difference [1, 12]: −0.05 | Cholesterol-free [1, 9]: 0.06701 | Complete [1, 10]: 0.01682 | Cholesterol-free media + simvastatin (0.04 μM) [2, 18]: 0.2727 | Complete Media [2, 19]: 0.2318 | Difference [2, 28]: −0.04

Nc1nc2[nH]cc(CCc3ccc(C(=O)N[C@@H](CCC(=O)O)C(=O)O)cc3)c2c(=O)[nH]1 [Pemetrexed (disodium)]
Difference [1, 12]: −0.19 | Cholesterol-free [1, 13]: 0.3169 | Complete ([1]; NCI-H292 cells, complete media): 0.1251 | Cholesterol-free media + simvastatin (0.04 μM) ([2]; NCI-H292 cells, cholesterol-free media with simvastatin 0.04 μM, cell growth value in FDA drug screen): 0.1199 | Complete Media ([2]; NCI-H292 cells, complete media, cell growth value in FDA drug screen): 0.1499 | Difference [2, 16]: 0.03

Nc1c2c(nc3ccccc13)CCCC2 [Tacrine hydrochloride hydrate]
Cholesterol-free [1, 9]: 1.254 | Complete [1, 10]: 1.477 | Difference [1, 11]: 0.22 | Cholesterol-free media + simvastatin (0.04 μM) [2, 18]: 1.406 | Complete Media [2, 19]: 1.383 | Difference [2, 28]: −0.02

CC(=O)NS(=O)(=O)c1ccc(NC(=O)c2ccccc2C(=O)O)cc1 [Phthalylsulfacetamide]
Difference [1, 12]: −0.29 | Cholesterol-free [1, 13]: 1.274 | Complete ([1]; NCI-H292 cells, complete media): 0.9792 | Cholesterol-free media + simvastatin (0.04 μM) [2, 24]: 1.031 | Complete Media [2, 25]: 0.7098 | Difference [2, 8]: −0.32

COc1cccc2c1cc([N+](=O)[O-])c1c(C(=O)O)cc3c(c12)OCO3 [Aristolochic acid A]
Difference [1, 17]: −0.56 | Cholesterol-free [1, 4]: 1.282 | Complete [1, 5]: 0.7241 | Cholesterol-free media + simvastatin (0.04 μM) [2, 24]: 0.923 | Complete Media [2, 25]: 0.5762 | Difference [2, 26]: −0.35

CCc1c(C)[nH]c2c1C(=O)C(CN1CCOCC1)CC2 (stereo not drawn) [Molindone (hydrochloride)]
Difference [1, 12]: −0.28 | Cholesterol-free [1, 13]: 1.138 | Complete ([1]; NCI-H292 cells, complete media): 0.8619 | Cholesterol-free media + simvastatin (0.04 μM) [2, 14]: 0.9443 | Complete Media [2, 15]: 0.8609 | Difference [2, 8]: −0.08

C=CC(=O)Nc1cc(Nc2nccc(-c3cn(C4CC4)c4ccccc34)n2)c(OC)cc1N(C)CCN(C)C [Almonertinib]
Difference [1, 12]: −0.19 | Cholesterol-free [1, 13]: 0.4646 | Complete ([1]; NCI-H292 cells, complete media): 0.2735 | Cholesterol-free media + simvastatin (0.04 μM) [2, 14]: 0.4298 | Complete Media [2, 15]: 0.2855 | Difference [2, 8]: −0.14
